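Exposure lasted 48 hours, with cells grown in 96-well plates and compounds tested at five concentrations. Here, GI50 denotes the concentration required for 50% inhibition of growth. The concentration for full growth arrest is given as TGI.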
Columns and labels:
Experiment in all cases: NCI anticancer screen, dose series, 48 h
UACC-257 melanoma = system: UACC-257 melanoma
HCT-15 colon = system: HCT-15 colon
SK-MEL-28 melanoma = system: SK-MEL-28 melanoma
HOP-62 NSCLC = system: HOP-62 NSCLC
MDA-MB-435 = system: MDA-MB-435
SF-268 CNS = system: SF-268 CNS
UO-31 renal = system: UO-31 renal
MDA-MB-231 breast = system: MDA-MB-231 breast
NCI-H522 lung = system: NCI-H522 lung
OVCAR-8 ovarian = system: OVCAR-8 ovarian
T-47D breast = system: T-47D breast
SK-OV-3 ovarian = system: SK-OV-3 ovarian
HCT-116 colon = system: HCT-116 colon
SF-295 CNS = system: SF-295 CNS
LOX IMVI melanoma = system: LOX IMVI melanoma
CCRF-CEM leukemia = system: CCRF-CEM leukemia
K-562 leukemia = system: K-562 leukemia
U251 CNS = system: U251 CNS
A549 NSCLC = system: A549 NSCLC
A498 renal = system: A498 renal
MCF7 breast = system: MCF7 breast
OVCAR-4 ovarian = system: OVCAR-4 ovarian
HL-60(TB) leukemia = system: HL-60(TB) leukemia
HT29 colon = system: HT29 colon
COLO 205 colon = system: COLO 205 colon

## O=C1C(=O)/C(=C/c2ccccc2)CCCCCC/C1=C/c1ccccc1
UACC-257 melanoma
  GI50: 2.3 µM
  TGI: 6.15 µM
HCT-15 colon
  GI50: 1.68 µM
  TGI: 3.24 µM
SK-MEL-28 melanoma
  GI50: 3.9 µM
  TGI: 15.4 µM
HOP-62 NSCLC
  GI50: 3.44 µM
  TGI: 10.5 µM
MDA-MB-435
  GI50: 2.21 µM
  TGI: 5.05 µM
SF-268 CNS
  GI50: 2.74 µM
  TGI: 8.28 µM
UO-31 renal
  GI50: 1.89 µM
  TGI: 3.88 µM
MDA-MB-231 breast
  GI50: 2.63 µM
  TGI: 6.52 µM
NCI-H522 lung
  GI50: 4.68 µM
  TGI: 16.3 µM
OVCAR-8 ovarian
  GI50: 3.14 µM
  TGI: 12.7 µM
T-47D breast
  GI50: 5.09 µM
  TGI: > 100 µM
SK-OV-3 ovarian
  GI50: 8.9 µM
  TGI: 70.3 µM
HCT-116 colon
  GI50: 1.5 µM
  TGI: 2.82 µM
SF-295 CNS
  GI50: 2.58 µM
  TGI: 7 µM
LOX IMVI melanoma
  GI50: 1.82 µM
  TGI: 3.53 µM
CCRF-CEM leukemia
  GI50: 3.05 µM
  TGI: 17.9 µM
K-562 leukemia
  GI50: 2.94 µM
  TGI: 8.77 µM
U251 CNS
  GI50: 1.62 µM
  TGI: 2.97 µM
A549 NSCLC
  GI50: 2.33 µM
  TGI: 7.16 µM
A498 renal
  GI50: 13.7 µM
  TGI: 28.4 µM
MCF7 breast
  GI50: 3.24 µM
  TGI: 31.8 µM
OVCAR-4 ovarian
  GI50: 2.78 µM
  TGI: 8.47 µM
HL-60(TB) leukemia
  GI50: 2.96 µM
  TGI: 8.87 µM
HT29 colon
  GI50: 2.04 µM
  TGI: 3.74 µM
COLO 205 colon
  GI50: 10.1 µM
  TGI: 32.6 µM

Reference: PubChem BioAssay (NCI)
